Data on 20 molecules can be found in patent US9796687B2, “S-substituted quinazolines and their therapeutic applications for the treatment of diseases mediated by PDE7” (Consejo Superior De Investigaciones Cientificas (CSIC), priority 2016, dated 2017).

One series addresses PDE7A1 (Homo sapiens (Human), UniProt Q13946). Briefly: PDE7 inhibition, commercial phosphodiesterase activity kit ([3H]cAMP, SPA). Type of series: biochemical. On the procedure:
Measurement of PDE7 inhibition was carried out using a commercial phosphodiesterase activity measurement kit.
Some of the compounds of the present invention (including those synthesised in Example 1) were evaluated. For this purpose, said compounds were incubated (in a range of concentrations from 0.1 nM to 100 μM) in the presence of 0.02 U/well of PDE7A1 and 0.05 μCi of [^3H] cAMP, for 20 minutes at 30° C. in the assay buffer supplied with the kit (total volume per well=100 μL). Once this time had elapsed, 50 μL of a 20 mg/mL suspension of SPA glass silicate microspheres were added and kept in agitation at ambient temperature for 60 minutes. After allowing the plate to rest for 20 minutes, the radioactivity was tested in a scintillation detector. All the assays included two points in the absence of PDE7A1 (blank/negative control) and two points with PDE7A1 in the absence of inhibitors (positive control).
The data were adjusted with a software program using non-linear adjustment.

A short description of another series: in vitro. To be noted: PAMPA, pH 7.4. (In general: The PAMPA barrier holds no transporters, so it reflects passive diffusion.)
Series [1] can be described thus: Parallel artificial membrane permeability assay (PAMPA) for CNS / blood-brain barrier permeability. To be noted: pH 7.4.
For a further series, the target named is PDE4D3 (Homo sapiens (Human), UniProt Q08499). Briefly: PDE4D3 inhibition. The class given is biochemical.
Chain of PDE4D3 (Q08499 other isoform, or with tags, fused parts or gaps): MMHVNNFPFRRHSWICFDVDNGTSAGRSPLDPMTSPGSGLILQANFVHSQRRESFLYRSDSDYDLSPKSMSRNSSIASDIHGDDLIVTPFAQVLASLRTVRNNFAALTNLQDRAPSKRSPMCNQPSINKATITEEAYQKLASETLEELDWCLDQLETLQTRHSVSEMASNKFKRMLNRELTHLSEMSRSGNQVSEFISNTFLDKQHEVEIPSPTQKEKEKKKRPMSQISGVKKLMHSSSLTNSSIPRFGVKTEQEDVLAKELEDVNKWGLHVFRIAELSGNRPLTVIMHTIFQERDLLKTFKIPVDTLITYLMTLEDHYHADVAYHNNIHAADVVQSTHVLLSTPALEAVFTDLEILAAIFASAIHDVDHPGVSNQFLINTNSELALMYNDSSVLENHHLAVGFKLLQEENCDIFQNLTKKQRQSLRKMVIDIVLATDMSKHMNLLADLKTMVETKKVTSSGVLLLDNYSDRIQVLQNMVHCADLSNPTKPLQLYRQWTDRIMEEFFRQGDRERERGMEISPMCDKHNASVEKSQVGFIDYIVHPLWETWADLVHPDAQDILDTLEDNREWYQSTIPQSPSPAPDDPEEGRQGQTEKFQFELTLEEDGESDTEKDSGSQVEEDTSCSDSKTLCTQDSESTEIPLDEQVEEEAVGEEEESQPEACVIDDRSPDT
The target of another series is PDE4B2 (Homo sapiens (Human), UniProt Q07343). Briefly: PDE4B2 inhibition. Type of series: biochemical.
Chain of PDE4B2 (Q07343 other isoform, or with tags, fused parts or gaps, species assumed): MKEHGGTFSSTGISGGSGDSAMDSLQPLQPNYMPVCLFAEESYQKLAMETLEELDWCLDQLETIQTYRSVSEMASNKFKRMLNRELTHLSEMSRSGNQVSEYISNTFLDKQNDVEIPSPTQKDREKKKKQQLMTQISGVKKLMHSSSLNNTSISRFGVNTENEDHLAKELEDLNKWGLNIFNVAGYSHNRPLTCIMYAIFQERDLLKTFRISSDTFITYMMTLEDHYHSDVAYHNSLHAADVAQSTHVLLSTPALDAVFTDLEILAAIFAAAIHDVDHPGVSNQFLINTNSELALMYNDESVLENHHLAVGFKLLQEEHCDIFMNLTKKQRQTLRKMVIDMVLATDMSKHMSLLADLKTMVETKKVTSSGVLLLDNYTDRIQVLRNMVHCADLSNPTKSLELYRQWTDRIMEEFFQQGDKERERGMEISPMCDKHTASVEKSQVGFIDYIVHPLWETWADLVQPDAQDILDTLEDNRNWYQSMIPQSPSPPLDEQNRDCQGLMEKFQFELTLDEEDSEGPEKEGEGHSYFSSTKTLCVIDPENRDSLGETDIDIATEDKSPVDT
For a further series, the target named is hERG channel (Homo sapiens (Human), UniProt Q12809). As to the kind of experiment: Toxicity on the cardiac hERG channel, FluxOR thallium fluorescence assay in HEK293 cells. Type of series: cell-based. The text has this:
The hERG potassium channel contributes in the final phase of the action potential, bringing the cell to its resting state. If a drug suppresses the activity of the channel, it can produce a prolongation of the […], known as “long QT syndrome”, resulting in a fatal ventricular arrhythmia.
To characterise the behaviour of the hERG potassium channel in the presence of the compounds of the present invention, use was made of an assay based on a fluorescent probe (FluxOR®, Life Technologies) with high affinity for thallium, an indicator of the activity of the potassium ion channel. When the potassium channels open in response to a stimulus, the influx of thallium from the external environment is detected by the probe. The fluorescent signal is therefore proportional to the number of open potassium channels in the cell. The FluxOR® is added in ester form without fluorescent emission capacity, thus preventing the emission of fluorescence outside the cell. When it enters the cell, the cytosol esterases activate the FluxOR®, so that it is capable of binding the thallium that passes into the cytoplasm through the hERG channel and of emitting fluorescence.
Black plates containing 96 wells treated with poly-D-lysine were seeded with HEK293 cells (deposit number ATCC CRL-1573) modified to stably express the hERG channel. […] After one hour of incubation of the fluorochrome with the cells at ambient temperature, the plates were washed with 50 μL of assay buffer. Subsequently, 20 μL of the compounds to be studied were added at a dilution of 1:200 (2 μL of compound/400 μL of assay buffer), in triplicate, on 12-point curves (1:2 dilutions of the compound in DMSO). […]. After 30 minutes of incubation, the plates were read in a FLIPR TETRA®, which added 5 μL of stimulus buffer (Tl2SO4+K2SO4). […]

Series [2] in a line: Pharmacokinetic studies in mice: exposure in plasma and brain. To be noted: for Kp / Tmax / Cmax: C57BL/6, mouse; for Kp: brain; for Tmax: plasma and brain; for Cmax: plasma; for levels in plasma and brain 2 hours after administration (elimination): intraperitoneal or oral administration.
The next series can be described thus: in vivo. To be noted: C57BL/6, mouse.
[3] abbreviates: mice, intraperitoneal administration, 10 mg/kg.
Setting [4] is: mice, oral administration, 10 mg/kg.
The mark [5] stands for this setting: mice, oral administration, 10 mg/kg, Tmax 0.5 h.

Like-named read-outs stand apart in the source and are kept apart here.

Chain of PDE7A1 (Q13946 whole entry, species assumed): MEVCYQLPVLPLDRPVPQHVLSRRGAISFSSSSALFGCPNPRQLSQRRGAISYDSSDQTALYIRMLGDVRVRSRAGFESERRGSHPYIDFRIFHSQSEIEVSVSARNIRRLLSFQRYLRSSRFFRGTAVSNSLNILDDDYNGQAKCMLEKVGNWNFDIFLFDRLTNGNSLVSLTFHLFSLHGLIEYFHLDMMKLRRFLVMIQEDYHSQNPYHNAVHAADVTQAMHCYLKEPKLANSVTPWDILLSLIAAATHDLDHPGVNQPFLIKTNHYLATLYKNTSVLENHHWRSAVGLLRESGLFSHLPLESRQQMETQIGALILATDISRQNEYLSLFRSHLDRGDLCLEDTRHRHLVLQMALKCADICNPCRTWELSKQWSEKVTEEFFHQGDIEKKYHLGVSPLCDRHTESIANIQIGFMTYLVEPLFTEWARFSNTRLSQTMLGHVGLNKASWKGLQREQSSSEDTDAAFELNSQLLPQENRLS
Chain of hERG channel (Q12809 whole entry): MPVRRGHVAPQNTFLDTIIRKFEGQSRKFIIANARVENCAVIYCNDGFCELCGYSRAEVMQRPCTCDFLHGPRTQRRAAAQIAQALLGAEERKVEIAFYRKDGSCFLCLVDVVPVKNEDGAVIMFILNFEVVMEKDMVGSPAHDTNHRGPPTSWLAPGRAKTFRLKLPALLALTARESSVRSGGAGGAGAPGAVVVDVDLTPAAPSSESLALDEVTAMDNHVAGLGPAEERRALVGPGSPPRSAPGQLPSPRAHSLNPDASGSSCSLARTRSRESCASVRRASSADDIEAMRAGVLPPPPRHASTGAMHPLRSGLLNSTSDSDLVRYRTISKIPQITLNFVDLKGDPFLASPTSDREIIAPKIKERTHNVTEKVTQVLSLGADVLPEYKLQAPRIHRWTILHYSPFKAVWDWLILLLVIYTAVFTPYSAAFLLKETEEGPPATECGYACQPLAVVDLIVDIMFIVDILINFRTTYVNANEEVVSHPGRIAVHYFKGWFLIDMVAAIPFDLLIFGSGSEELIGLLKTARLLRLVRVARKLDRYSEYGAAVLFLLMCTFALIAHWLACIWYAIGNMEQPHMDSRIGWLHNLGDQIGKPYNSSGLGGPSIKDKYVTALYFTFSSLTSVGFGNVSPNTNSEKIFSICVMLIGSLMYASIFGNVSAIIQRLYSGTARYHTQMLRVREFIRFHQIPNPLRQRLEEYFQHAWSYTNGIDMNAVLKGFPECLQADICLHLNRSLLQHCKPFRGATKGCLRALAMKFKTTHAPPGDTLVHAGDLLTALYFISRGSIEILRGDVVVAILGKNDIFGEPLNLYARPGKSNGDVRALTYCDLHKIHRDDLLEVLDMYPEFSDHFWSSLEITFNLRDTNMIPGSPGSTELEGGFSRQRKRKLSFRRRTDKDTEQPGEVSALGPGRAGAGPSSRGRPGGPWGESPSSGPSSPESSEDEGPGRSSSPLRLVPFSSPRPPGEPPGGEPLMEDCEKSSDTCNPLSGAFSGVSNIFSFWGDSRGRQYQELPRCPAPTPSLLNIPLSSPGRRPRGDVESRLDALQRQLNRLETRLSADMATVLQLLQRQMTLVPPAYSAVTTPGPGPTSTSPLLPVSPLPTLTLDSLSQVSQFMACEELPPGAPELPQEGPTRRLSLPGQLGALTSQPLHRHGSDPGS

As for `O=c1c2ccccc2nc(SCc2cccnc2)n1-c1ccccc1` [Compound 24, 3-Phenyl-2-(3-pyridylmethylthio)-4-oxo-3,4-dihydroquinazoline], at PDE7A1 (read-out: PDE7A IC50), the IC50 was determined as 0.7 µM. Moreover, the Papp – broadly, the rate of passage across a membrane or cell layer, normalised by area and donor concentration – at 2.5 h in “in vitro” was 18.6 ± 1.7 ×10⁻⁶ cm/s.

In series [1], `CN1C(C(=O)Nc2ccccn2)=C(O)c2ccccc2S1(=O)=O` [Piroxicam, piroxicam] gave a Papp at 2.5 h of 0.2 ± 0.1 ×10⁻⁶ cm/s.

For `CCSc1nc2ccccc2c(=O)n1-c1c(F)cccc1F` [Compound 17, 2-Ethylthio-3-(2,6-difluorophenyl)-4-oxo-3,4-dihydroquinazoline], the IC50 on PDE7A1 (read-out: PDE7A IC50) came out at 6.99 µM. The Papp at 2.5 h in the series “in vitro” turned out to be 4.8 ± 0.6 ×10⁻⁶ cm/s.

With `Cc1ccccc1-n1c(SCc2cccnc2)nc2ccccc2c1=O` [Compound 26, 3-(2-Methylphenyl)-2-(3-pyridylmethylthio)-4-oxo-3,4-dihydroquinazoline], the IC50 on PDE7A1 (read-out: PDE7A IC50) amounted to 0.12 µM. In “in vitro”, this molecule showed a Papp at 2.5 h of 20.1 ± 0.1 ×10⁻⁶ cm/s.

As to `O=c1c2ccccc2nc(SCc2ccncc2)n1-c1ccccc1` [Compound 27, 3-Phenyl-2-(4-pyridylmethylthio)-4-oxo-3,4-dihydroquinazoline], at PDE7A1 (read-out: PDE7A IC50), the IC50 was determined as 2.6 µM. In addition, the Papp at 2.5 h in “in vitro” was 15.9 ± 1.3 ×10⁻⁶ cm/s.

On to `Cc1cccc2c(=O)n(-c3c(F)cccc3F)c(SCC(C)(C)C)nc12` [Compound 6, 3-(2,6-Difluorophenyl)-8-methyl-2-neopentylthio-4-oxo-3,4-dihydroquinazoline], for which the IC50 at PDE7A1 (read-out: PDE7A IC50) was 8.67 µM.

With `O=c1c2ccccc2nc(SCC2CCCCC2)n1-c1ccccc1` [Compound 1, 2-Cyclohexylmethylthio-3-phenyl-4-oxo-3,4-dihydroquinazoline], at PDE7A1 (read-out: PDE7A IC50), the IC50 was found to be 0.2 µM. For the same molecule, the inhibition (in general, the change of the read-out against control, counted positive when it falls) at 10 µM stood at 49% at PDE4D3 and 18% at PDE4B2.

`O=c1c2ccccc2nc(SCc2ccccn2)n1-c1ccccc1` [Compound 23, 3-Phenyl-2-(2-pyridylmethylthio)-4-oxo-3,4-dihydroquinazoline]: the IC50 on PDE7A1 (read-out: PDE7A IC50) was found to be 0.8 µM. The same molecule gave a Papp at 2.5 h in “in vitro” of 12.4 ± 2.2 ×10⁻⁶ cm/s.

As to `O=c1c2ccccc2nc(SCc2ccccc2)n1-c1ccccc1` [Compound 21, 2-Benzylthio-3-phenyl-4-oxo-3,4-dihydroquinazoline], the IC50 on PDE7A1 (read-out: PDE7A IC50) was determined as 0.6 µM. Moreover, the inhibition at 10 µM was 38% at PDE4D3 and 28% against PDE4B2.

Consider `O=c1c2ccccc2nc(SCc2ccc3ccccc3c2)n1-c1ccccc1` [Compound 28, 3-Phenyl-2-(2-naphthylmethylthio)-4-oxo-3,4-dihydroquinazoline], for which the IC50 on PDE7A1 (read-out: PDE7A IC50) came out at 0.09 µM.

For `CCSc1nc2ccccc2c(=O)n1-c1ccccc1` [Compound 16, 2-Ethylthio-3-phenyl-4-oxo-3,4-dihydroquinazoline], the IC50 on PDE7A1 (read-out: PDE7A IC50) stood at 6.9 µM. In the series “in vitro”, this molecule registered a Papp at 2.5 h of 7.9 ± 1.2 ×10⁻⁶ cm/s.

As for `O=c1c2ccccc2nc(SCC2CCCCC2)n1-c1ccccc1Br` [Compound 2, 3-(2-Bromophenyl)-2-cyclohexylmethylthio-4-oxo-3,4-dihydroquinazoline], on PDE7A1 (read-out: PDE7A IC50), the IC50 stood at 2.11 µM.

With `Cc1cccc2c(=O)n(-c3c(F)cccc3F)c(SCC3CC3)nc12` [Compound 15, 2-Cyclopropylmethylthio-3-(2,6-difluorophenyl)-8-methyl-4-oxo-3,4-dihydroquinazoline], the IC50 at PDE7A1 (read-out: PDE7A IC50) worked out at 4.56 µM. The molecule also gave a Papp at 2.5 h in the series “in vitro” of 1.3 ± 0.9 ×10⁻⁶ cm/s.

Regarding `O=c1[nH]c(SCc2cccnc2)nc2c(Cl)cccc12` [Compound 25, 8-Chloro-2-(3-pyridylmethylthio)-4-oxo-3,4-dihydroquinazoline], the IC50 on PDE7A1 (read-out: PDE7A IC50) came out at 0.54 µM. The molecule also showed a Papp at 2.5 h in the series “in vitro” of 12.1 ± 3.9 ×10⁻⁶ cm/s.

Consider `CCSc1nc2c(Cl)cccc2c(=O)n1-c1c(F)cccc1F` [Compound 18, 8-Chloro-2-ethylthio-3-(2,6-difluorophenyl)-4-oxo-3,4-dihydroquinazoline], for which, on PDE7A1 (read-out: PDE7A IC50), the IC50 was found to be 2.44 µM.

In turn, `S=c1[nH]c2ccccc2c(=S)n1-c1ccccc1` [TC3.6, 3-Phenyl-2,4-dithioxo-1,2,3,4-tetrahydroquinazoline] displayed an IC50 at hERG channel (stimulated the opening of the potassium channel, HEK293 hERG, FluxOR) of 5.19 µM. Also, the Kp in series [2] (ip, 10 mg/kg) is 0.51; in series [2] (other: intraperitoneal and oral, 10 mg/kg) it was below 1; in series [2] (po, 10 mg/kg) it was 0.43. The Tmax (commonly the time at which the peak concentration occurs) in series [2] (ip, 10 mg/kg) is 15 min; in series [2] (po, 10 mg/kg), 30 min. Moreover, the Cmax – broadly, the highest concentration seen after dosing – is 6790 nM in series [2] (ip, 10 mg/kg) and 860 nM in series [2] (po, 10 mg/kg). In addition, the figures for the “Cmax/PDE7 IC50 ratio, brain” value in series [2] (setting [3]) and in series [2] (setting [4]) were 3.33 and 0.36, respectively. Moreover, the entries for the “Cmax/PDE7 IC50 ratio, plasma” value in series [2] (setting [3]) and in series [2] (setting [4]) were 6.53 and 0.83, respectively. Also, in series [2] (mice, 10 mg/kg), the “levels in plasma and brain 2 hours after administration (elimination)” value is “almost eliminated”. Further, the “Brain Cmax” value in series [2] (setting [5]) was determined as 370 nM; in series [2] (mouse, in vivo) it was 3460 nM.

Regarding `CC(C)(C)CSc1nc2ccccc2c(=O)n1-c1ccccc1` [Compound 5, 3-Phenyl-2-neopentylthio-4-oxo-3,4-dihydroquinazoline], the IC50 on PDE7A1 (Table 3, read-out: PDE inhibitory activity PDE7A CI50) is 0.1 µM; at PDE7A1 (read-out: PDE7A IC50), 0.1 µM; against hERG channel, above 30 µM. The inhibition at 10 µM on PDE4D3 was determined as 37%; at PDE4B2, 29%. Also, the cardiotoxic potential result on hERG channel (deduced from hERG data) is “did not have any cardiotoxic potential”. Further, the Kp in “in vivo” was above 1; in the series “in vivo” (ip, 10 mg/kg), 2.45; in the series “in vivo” (po, 10 mg/kg) it was 1.19. In addition, the Cmax in the series “in vivo” (ip, 10 mg/kg) worked out at 2310 nM; in the series “in vivo” (po, 10 mg/kg), 1380 nM. In addition, the Tmax in “in vivo” (ip, 10 mg/kg) turned out to be 15 min; in “in vivo” (po, 10 mg/kg), 30 min. Also, the results for the “Cmax/PDE7 IC50 ratio, brain” value in series [2] (setting [3]) and in series [2] (setting [4]) were 56.5 and 16.4, respectively. Also, the “Cmax/PDE7 IC50 ratio, plasma” value came out at 23.1 in series [2] (setting [3]) and 13.8 in series [2] (setting [4]). The “Brain Cmax” value in series [2] (mice, intraperitoneal administration, 10 mg/kg, Tmax 0.25 h) was found to be 5650 nM; in series [2] (setting [5]) it was 1640 nM. The “levels in plasma and brain 2 hours after administration (elimination)” value in series [2] (mice, 10 mg/kg) is on record as “still considerable levels”.

Turning to `Cc1ccccc1-n1c(SCC(C)(C)C)nc2ccccc2c1=O` [Compound 13, 3-(2-Methylphenyl)-2-neopentylthio-4-oxo-3,4-dihydroquinazoline], the IC50 at PDE7A1 (read-out: PDE7A IC50) was 1.85 µM. In addition, the Papp at 2.5 h in the series “in vitro” amounted to 3.9 ± 0.7 ×10⁻⁶ cm/s.

As for `CC(C)(C)CSc1nc2c(Cl)cccc2c(=O)n1-c1ccccc1` [Compound 11, 8-Chloro-3-phenyl-2-neopentylthio-4-oxo-3,4-dihydroquinazoline], the IC50 at PDE7A1 (read-out: PDE7A IC50) was 1.2 µM.

`O=c1c2ccccc2nc(SCC2CC2)n1-c1ccccc1Br` [Compound 14, 3-(2-Bromophenyl)-2-cyclopropylmethylthio-4-oxo-3,4-dihydroquinazoline]: the IC50 at PDE7A1 (read-out: PDE7A IC50) was 9.44 µM. The molecule further came in with a Papp at 2.5 h in “in vitro” of 1.9 ± 0.3 ×10⁻⁶ cm/s.
